Measurements from patent publication US4803167A, “Monoclonal antidigoxtin antibodies” (The General Hospital Corporation, priority 1982, dated 1989).
Values joined by “and” are separate entries in the source; they are usually repeats but may differ in a detail not shown here. Equal entries are not always repeated. Where two headings read alike, the source gives them in different places.

What was measured:
[1] = molecular target: Fab fragment of monoclonal anti-digoxin antibody Dig 26-10; test: Affinity determination, [3H]digoxin dextran-coated charcoal RIA; conditions: read-out: Affinity Constant K0 for digoxin, Fab of Dig 26-10, 60 min
[2] = tested on: heterogeneous anti-digoxin antibody, Sheep Antisera; test: as above; assay type: binding; conditions: antibody source: serum; 60 min; read-out: Affinity Constant K0 for digoxin (converted)
Method: (§1) Antisera specific for digoxin was prepared in sheep as previously described by Curd et al, Proc. Nat. Acad. Sci. 65: 2401 (1971). High affinity antidigoxin sheep antisera was used in the clinical RIA for digoxin (described below).

[3] = tested on: monoclonal anti-digoxin antibody Dig 25-54 (IgG1); test: as above; assay type: binding, mouse (A/J); conditions: for Kd: 60 min, read-out: Affinity Constant K0 for digoxin (converted)
Method: (§2) Using the dextran coated charcoal binding method for separation of bound antibody from free H^3 -digoxin (Smith, J. Clin. Invest. 51:1583 (1972)), affinities (Ko) for monoclonal anti-digoxin antibodies were determined for antibody present in culture media and in preparations purified from ascites. Data were plotted according to a modified Sips equation (Nisonoff et al, J. Immunol. 80:417 (1958)), as described earlier herein. Typical of single component systems, a linear plot was obtained for all hybridomas analyzed. Correlation coefficients (r) varied from 0.989 to 0.999 for the monoclonal antibodies analyzed by this method. As anticipated, no significant difference was found for affinity constants determined for antibody present in culture media and in preparations following purification from ascites fluid (Table III).

[4] = molecular target: monoclonal anti-digoxin antibody Dig 26-40 (IgG2a); test: as above; assay type: binding, mouse (A/J); conditions: 60 min, read-out: Affinity Constant K0 for digoxin (converted)
Method: as §2

[5] = molecular target: monoclonal anti-digoxin antibody Dig 26-30 (IgG2a); test: as above; assay type: binding, mouse (A/J); conditions: 60 min, read-out: Affinity Constant K0 for digoxin (converted)
Method: as §2

[6] = molecular target: monoclonal anti-digoxin antibody Dig 26-10 (IgG2a); test: as above; assay type: binding, mouse (A/J); conditions: for Kd: 60 min, read-out: Affinity Constant K0 for digoxin (converted)
Method: as §2

[7] = molecular target: monoclonal anti-digoxin antibody Dig 26-20 (IgG2a); test: as above; assay type: binding, mouse (A/J); conditions: 60 min, read-out: Affinity Constant K0 for digoxin (converted)
Method: as §2

[8] = tested on: monoclonal anti-digoxin antibody Dig 35-20 (IgG1); test: as above; assay type: binding, mouse (A/J); conditions: for Kd: 60 min, read-out: Affinity Constant K0 for digoxin (converted)
Method: as §2

[9] = tested on: monoclonal anti-digoxin antibody Dig 26-40; test: Specificity determination, inhibition of [3H]digoxin binding in dextran charcoal RIA; set-up: species or system mouse (A/J); conditions: inhibition of antibody binding to [3H]digoxin
Method: (§3) The specificity of each antidigoxin antibody for related cardiac glycosides was assessed by the inhibition of binding of antibody in the dextran charcoal radioimmunoassay Smith (1972), supra. To a constant amount of H^3 -digoxin (1.5 ng) in 1 ml of buffer is added different amounts ([…]) of various cardiac glycosides: digoxin, digitoxin, digitoxigenin, digoxigenin, acetyl-strophanthidin, ouabain, deslanoside, and endogenous steroids such as chloresterol, cortisol, androsterone, 17-[beta]-estradiol, progesterone, and testosterone. After 5 minutes, a constant amount of anti-digoxin antibody was added and the assay was continued as described above. Comparison among different antidigoxin antibodies with respect to their fine specificity was made by determining the amount of cardiac glycoside required to achieve 50% inhibition relative to that required for cold digoxin.
(§4) Specificity of monoclonal antibody binding site for related cardiac glycosides was examined by means of hapten inhibition experiments in which the binding of monoclonal antibody to H^3 -digoxin was inhibited by cold digoxin and related cardiac glycosides.

[10] = tested on: monoclonal anti-digoxin antibody Dig 35-20; test: as above; set-up: species or system mouse (A/J); conditions: inhibition of antibody binding to [3H]digoxin
Method: as §3, §4

[11] = tested on: monoclonal anti-digoxin antibody Dig 26-30; test: as above; set-up: species or system mouse (A/J); conditions: inhibition of antibody binding to [3H]digoxin
Method: as §3, §4

[12] = tested on: monoclonal anti-digoxin antibody Dig 26-10; test: as above; set-up: species or system mouse (A/J); conditions: inhibition of antibody binding to [3H]digoxin
Method: as §3, §4

[13] = tested on: monoclonal anti-digoxin antibody Dig 25-54; test: as above; set-up: species or system mouse (A/J); conditions: inhibition of antibody binding to [3H]digoxin
Method: as §3, §4

[14] = tested on: monoclonal anti-digoxin antibody Dig 26-20; test: as above; set-up: species or system mouse (A/J); conditions: inhibition of antibody binding to [3H]digoxin
Method: as §3, §4

[15] = molecular target: heterogeneous anti-digoxin antibody, Pooled mouse antibody; test: Affinity determination, [3H]digoxin dextran-coated charcoal RIA; assay type: binding, mouse (A/J); conditions: antibody source: serum; 60 min; read-out: Affinity Constant K0 for digoxin (converted)
Method: (§5) A pool of mouse antidigoxin antibody was prepared from immune sera as follows. A/J mice immunized with Dig-HSA as described above, were bled from the tail on the 3rd or 4th week following intraperitoneal injection of antigen. Their sera were pooled and the antidigoxin antibodies were purified from the sera by affinity chromatography as described below. This antibody preparation was used as a standard antidigoxin reagent in the PVC-plate RIA (described below).

[16] = tested on: heterogeneous anti-digoxin antibody, Pooled mouse antisera; test: as above; assay type: binding, mouse (A/J); conditions: antibody source: serum; 60 min; read-out: Affinity Constant K0 for digoxin (converted)
Method: as §5

[17] = molecular target: monoclonal anti-digoxin antibody Dig 26-10; test: Affinity constant by equilibrium dialysis; assay type: binding, mouse (A/J); conditions: confirmed by equilibrium dialysis
Excerpt: The affinity constant determined for Dig 26-10 (approximately 10^9 M^-1) was confirmed by equilibrium dialysis. […] The Ko determined for Dig 35-20 was also high, 1.3-3.4×10^9 M^-1.

[18] = tested on: Sheep Anti-Dig Serum (heterogeneous anti-digoxin antiserum); test: Specificity determination, inhibition of [3H]digoxin binding in dextran charcoal RIA; conditions: inhibition of antibody binding to [3H]digoxin
Method: as §1, §3, §4

**Q.** Which Kd [1] does the source give for `C[C@H]1O[C@@H](O[C@H]2[C@@H](O)C[C@H](O[C@H]3[C@@H](O)C[C@H](O[C@H]4CC[C@@]5(C)[C@H](CC[C@@H]6[C@@H]5C[C@@H](O)[C@]5(C)[C@@H](C7=CC(=O)OC7)CC[C@]65O)C4)O[C@@H]3C)O[C@@H]2C)C[C@H](O)[C@@H]1O` [Digoxin] here?
**A.** The Kd was 0.833 nM and 1 nM.

**Q.** And the Kd [2]?
**A.** Its Kd is 0.0833 nM.

**Q.** And the Ko for digoxin [3]?
**A.** Its Ko for digoxin is 3.5 to 5.2 ×10^8 M^-1.

**Q.** And the “apparent affinity Ko for digoxin” value [3]?
**A.** Its value is < 10^8 M^-1.

**Q.** And the Kd ([3]; antibody purified from ascites)?
**A.** Its Kd is 1.92 nM.

**Q.** What about the Kd ([3]; antibody source: culture media) of the same compound?
**A.** The Kd was 3.85 nM.

**Q.** What about the Kd ([4]; antibody purified from ascites) of the same compound?
**A.** Its Kd is 0.385 nM.

**Q.** And the Kd ([4]; antibody source: culture media)?
**A.** The Kd was 0.227 nM.

**Q.** And the Kd ([5]; antibody purified from ascites)?
**A.** Its Kd is 0.172 nM.

**Q.** And the Kd ([5]; antibody source: culture media)?
**A.** Its Kd is 0.256 nM.

**Q.** And the Kd ([6]; antibody purified from ascites)?
**A.** Its Kd is 0.213 nM.

**Q.** What about the Kd ([6]; antibody source: culture media) of the same compound?
**A.** The Kd was 0.118 nM.

**Q.** And the “Ko for digoxin, average value for the intact antibody” value ([6]; intact antibody)?
**A.** Its value is < 5×10^9.

**Q.** And the Kd ([7]; antibody purified from ascites)?
**A.** Its Kd is 0.294 nM.

**Q.** And the Kd ([7]; antibody source: culture media)?
**A.** Its Kd is 0.714 nM.

**Q.** And the Ko for digoxin [8]?
**A.** The Ko for digoxin was 1.3-3.4×10^9 M^-1.

**Q.** What about the Kd ([8]; antibody purified from ascites) of the same compound?
**A.** The Kd was 0.769 nM.

**Q.** And the Kd ([8]; antibody source: culture media)?
**A.** The Kd was 0.526 nM.

**Q.** And the “amount of inhibitor required to give 50% inhibition relative to the amount of digoxin which gave 50% inhibition” value [9]?
**A.** Its value is 1.0.

**Q.** And the “amount of inhibitor required to give 50% inhibition relative to the amount of digoxin which gave 50% inhibition” value [10]?
**A.** The value was 1.0.

**Q.** And the “amount of inhibitor required to give 50% inhibition relative to the amount of digoxin which gave 50% inhibition” value [11]?
**A.** The value was 1.0.

**Q.** What about the “amount of inhibitor required to give 50% inhibition relative to the amount of digoxin which gave 50% inhibition” value [12] of the same compound?
**A.** Its value is 1.0.

**Q.** What about the “amount of inhibitor required to give 50% inhibition relative to the amount of digoxin which gave 50% inhibition” value [13] of the same compound?
**A.** Its value is 1.0.

**Q.** What about the “amount of inhibitor required to give 50% inhibition relative to the amount of digoxin which gave 50% inhibition” value [14] of the same compound?
**A.** The value was 1.0.

**Q.** What about the Kd [15] of the same compound?
**A.** Its Kd is 0.286 nM.

**Q.** What about the Kd [16] of the same compound?
**A.** The Kd was 0.323 nM.

**Q.** What about the Kd [17] of the same compound?
**A.** The Kd was roughly 1 nM.

**Q.** What about the “amount of inhibitor required to give 50% inhibition relative to the amount of digoxin which gave 50% inhibition” value [18] of the same compound?
**A.** The value was 1.0.
